Data published in US20130259929A1, “USE OF A PHOSPHOPEPTIDE ABLE TO BLOCK HER3/P85 INTERACTION FOR THE TREATMENT OF HER2 HYPER-EXPRESSING TUMOURS” (priority 2010, published 2013).
Non-standard residues stand in square brackets, D forms with d. No end group written: not given here. pY = N[C@@H](Cc1ccc(OP(=O)(O)O)cc1)C(=O)O

Experiments:
[1] = test system: PI3K activity measured as Akt phosphorylation; experiment: Akt phosphorylation (Western blot) after peptide transfection; type: cell-based, human
Experimental: (§1) Peptide transfection. In order to inhibit the p85 and ErbB3 interaction, MCF7, BT474 and MDA-MB-453 cell lines have been transfected using 80, 100, and 180 μg, respectively, of the following phosphopeptides:
(§2) Treatments and lmmunodecorations. […] Briefly the cells have been plated at 5×10^5 concentration in 60 mm plates. […] At the end of the treatment the cells have been lysed with RIPA buffer [150 mM NaCl, 1% NP-40, 0,5% sodium deoxycholate (DOC), 0.1% SDS, 50 mM TrisHCl (pH 8), 1 mM PMSF, 1 mM EGTA, 50 mM NaF, 50 mM Na3VO4 and protease inhibitors (Roche, Milano, IT)] in order to analyze the expression levels of phosphorylated and total ErbB-3, ErbB-2, ERK and HSP-70 proteins. In order to analyze the levels of Akt phosphorylation and expression, the cells have been lysed in NP-40 buffer [1% NP-40, 10% glycerol, 137 mM NaCl, 20 mM TrisHCl (pH 7.4), 50 mM NaF, 1 mM PMSF, 5 mM Na3VO4, protease inhibitors (Roche, Milano, IT)]. Cell lysates have been incubated on ice for 20 minutes and centrifuged at 14000 rpm for 20 minutes. RIPA buffer obtained cell extracts have been boiled for 5 minutes at 95° C., while NP40 buffer lysed samples have been boiled at 65° C. for 5 minutes. Samples have been subjected to SDS-PAGE and transferred on nitrocellulose filters (Bio-Rad, Milan, IT). Then the filters have been incubated with interest antibodies, washed and incubated with specific secondary horse radish peroxidase (HRP) conjugated antibodies. After thorough washing, nitrocellulose peroxidase activity has been detected by chemiluminescence (Lite-blot-Euroclone, Milano, IT)

[2] = target: p85 (Homo sapiens, UniProt P27986); details: binding to p85; cited from earlier work
Chain of p85 (P27986 whole entry): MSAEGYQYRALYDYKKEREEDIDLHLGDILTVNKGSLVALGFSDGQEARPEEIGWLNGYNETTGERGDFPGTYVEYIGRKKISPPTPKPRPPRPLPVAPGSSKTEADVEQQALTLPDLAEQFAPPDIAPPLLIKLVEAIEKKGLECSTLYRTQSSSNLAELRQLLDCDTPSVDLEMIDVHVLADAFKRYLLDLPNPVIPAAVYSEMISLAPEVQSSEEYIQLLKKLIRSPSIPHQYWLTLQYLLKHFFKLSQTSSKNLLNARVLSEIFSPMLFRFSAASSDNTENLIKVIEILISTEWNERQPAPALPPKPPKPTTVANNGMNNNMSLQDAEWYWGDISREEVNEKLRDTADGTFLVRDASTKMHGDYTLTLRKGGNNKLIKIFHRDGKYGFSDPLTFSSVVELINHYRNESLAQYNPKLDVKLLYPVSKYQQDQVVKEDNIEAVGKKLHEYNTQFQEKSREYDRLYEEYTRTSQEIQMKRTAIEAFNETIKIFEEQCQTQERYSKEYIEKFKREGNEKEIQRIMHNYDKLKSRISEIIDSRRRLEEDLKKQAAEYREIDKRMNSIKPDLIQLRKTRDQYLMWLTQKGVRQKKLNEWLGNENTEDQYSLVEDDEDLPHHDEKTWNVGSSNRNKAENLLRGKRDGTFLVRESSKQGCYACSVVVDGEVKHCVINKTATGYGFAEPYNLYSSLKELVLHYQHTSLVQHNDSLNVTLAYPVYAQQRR

[3] = test system: MAPK phosphorylation; experiment: MAPK (ERK1/2) phosphorylation (Western blot) after peptide transfection; type: cell-based, human; details: MCF7, BT474 and MDA-MB-453 cells (FIG. 4A); Herceptin where combined
Experimental: as §1
as §2, with “Samples have been subjected to SDS-PAGE and transferred on nitrocellulose filters (Bio-Rad, Milan, IT). Then the filters have been incubated with interest antibodies, washed and incubated with specific secondary horse radish peroxidase (HRP) conjugated antibodies.” left out

[4] = target: T1, HER3 binding to GST-N-SH2p85 fusion protein (Homo sapiens, UniProt P27986); experiment: GST pull-down; details: lysates of BT474, MCF7 and MDA-MB-453 cells, in vitro (FIG. 2A, FIG. 3)
T1 construct: containing SH2 domains in N-terminal portion of p85 sub-unit
T1 sequence (P27986 333-428 limits assumed): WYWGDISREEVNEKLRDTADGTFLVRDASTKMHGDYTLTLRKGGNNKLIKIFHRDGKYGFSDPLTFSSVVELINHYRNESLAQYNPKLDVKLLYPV
Experimental: GST pull-down. MCF-7, BT474 and MDA-MB-453 cell lines have been washed 2 times with cold PBS and extracted with lysis buffer [(50 mM Tris HCl (pH 7.4), 250 mM NaCl, 0,1% Triton X-100, 5 mM EDTA, 50 mM NaF, 1 mM PMSF, 5 mM Na3VO4 and 50 mmol/L of protease inhibitors (Roche, Milano, IT)]. After 20 minute ice-cold incubation, the lysates have been clarified by centrifugation at 14000 rpm for 20 minutes. The cellular extracts (1 mg sample) have been incubated for 4 hours at 4° C. in the presence of GST bound gluthatione-agarose beads or GST-p85 fusion protein (kindly supplied by doctor S. Giordano), in the presence or absence of 1257 phosphopeptide or scr peptide used as control. Then the interaction complexes have been washed six times with lysis buffer and subsequently beads eluted using Laemli Buffer 2× [(140 mM SDS, 432 mM Glycerol, 1.6 mM Bromophenol blue, 120 mM Tris HCl (pH 6.8), 8% β-mercaptoethanol)]. The proteins have been separated using 8% SDS-PAGE and transferred on nitrocellulose filter. The filter has been then immunodecorated with anti ErbB3 antibody.
As in FIG. 2A is apparent that 1257 phosphopeptide effectively in vitro binds p85 sub-unit thus inhibiting HER3 receptor binding.

[5] = test system: MCF7/Luc cells; experiment: In vivo growth of peptide-transfected MCF7/Luc cells inoculated s.c.; parameters: species or system SCID mice; details: s.c. inoculation of transfected MCF7 cells
Experimental: Xeno-grafts. In vivo tests have been carried out using 40 day old SCID female mice (Harlan Laboratories, Milan, IT). At day 0, animals have been totally anesthetized with intramuscular injection of 400 μg/animal (average weight 25 g) of Zoletil (Virbac) containing 0.12% Xylor (Xylazine), and transplanted subcutaneously (s.c.), in intrascapular mouse region with pellet of […] (1.7 mg/sustained release pellet over 60 days, Innovative Research of America, Sarasota, Fla.). On the next day, 5×10^6 proliferating and scr and 1257 peptide previously transfected, as above described, MCF7 or BT474 cells, have been re-suspended in 0.1 ml of Matrigel (BD Biosciences) and subcutaneously inoculated in each mouse. […] Tumour growth has been monitored two times weekly using calibration along two orthogonal axes: length (L) and […]. The tumour volume (V) has been calculated using the formula V=L*(W2)/2. All the procedures relating to animals and treatment thereof have been carried out according institutional guidelines.
Generation of mammary tumour luminescent cells. Mammary tumour MCF7 cell lines stably transfected using pGL4.51 (luc2/CMV/Neo) expression vector, produced by Promega (Me, IT), have been transfected using scr or 1257 phosphopeptide ([…]×5×10^4 cells/mouse) and after 30 h subcutaneously inoculated in SCID mice (5×10^6 cells/mouse) in 200 μl (1:1 Matrigel: cell suspension in serum free medium). Mice have been in vivo imaged 20′ after inoculation and once weekly over 11 weeks. The animals have been anesthetized, as above reported, and subjected to intraperitoneal injection with 200 μl of luciferin (Caliper, Mi, IT); 10′ after incubation photon emission has been analyzed at 3′ minute exposure using Xenogen Ivis Lumina 2 machine. Growth of these cells has been monitored as reported in xenografts section.
Then it has been verified whether 1257 phosphopeptide was effective also in vivo. To this purpose immunocompromised SCID mice have been used. In the presence of oestrogen tablets, 5×10^6 control cells transfected with scr peptide or transfected with 1257 peptide have been injected subcutaneously between mouse scapulae. In order to verify the viability of phosphopeptide transfected cells in animals we have generated a stable luciferase gene expressing MCF7 cell line (MCF7/Luc).

Row | Substance | inhibition of PI3K activity measured as inhibition level of Akt phosphorylation ([1]; MCF7 cells, peptide transfection at different doses (FIG. 12)) | association constant (Ka) [2] | phosphorylation of Akt ([1]; MCF7, BT474 and MDA-MB-453 cells (FIG. 4A), Herceptin where combined) | MAPK phosphorylation [3] | inhibition of HER3 and p85 SH2 domain binding [4] | time after inoculation at which tumours were calibratable [5] | tumour take ([5]; SCID mice) [%] | inhibition of Akt phosphorylation ([1]; MCF7 cells, 48 hr after Lipofectamine transfection (FIG. 3))
1 | PTAGTTPDEDpYEYMNRQR (PTAGTTPDED[pY]EYMNRQR; listed as Homo sapiens) [1241 phosphopeptide, second HER3-derived phosphopeptide used for preliminary experiments, reference compound] | not suitable to remarkably inhibit PI3K activity | 824 |  |  |  |  |  | 
2 | PYQMRpYNADTDGERTTEP (PYQMR[pY]NADTDGERTTEP) [scr phosphopeptide, scramble (scr), i.e. not specific, phosphopeptide used as control, reference compound] |  |  | does not result in any effect | does not result in any effect | the binding is as efficient as in the absence of peptide | three | 100 | 
3 | not phosphorylated 1257 peptide: Not phosphorylated 1257 peptide used as further negative control (RDGGGPGGDYAAMGACPA; not fully specified) [reference compound] |  |  |  |  | does not inhibit p85 and ErbB-3 binding |  |  | unable to inhibit Akt phosphorylation
